Laboratory results from patent US10472341B2, “Bicyclic tetrahydrothiazepine derivatives useful for the treatment of neoplastic and/or infectious diseases” (APEIRON BIOLOGICS AG, priority 2015, dated 2019).
Structures can show the parent of a compound that is named as a salt.

Legend:
Monocytes = assay: FC receptor stimulation on myeloid cells (monocytes, precoated anti-GD2-Abs): TNF-alpha, IL-1, IL-6; format: cell-based, human
Method: Isolated Monocytes were plated in Xvivo medium at 1.5*10^5 cells per in 96 well culture plates and stimulated by precoated anti-GD2-Abs (10 μg/ml, Apeiron) where indicated. Cytokine secretion was determined by enzyme-linked immunosorbent assay (ELISA). The results of the above experiment titled “Enhancement of reactivity of immune cells to stimulation by tumor-cell bound therapeutic antibody” indicate that compounds can enhance FcR stimulation of immune cells. However, in a set-up as used therein, it is difficult to subtract the effects of tumor-cell contact from the effects of Fc-receptor stimulation. Therefore, the effect of FcR-stimulation by the same anti-GD2-Ab was tested in a tumor-cell free assay set-up, where the anti-GD2 antibodies were coated to cell culture plates, thereby mimicking cell-bound antibodies.

OT-II cells = assay: OT-II transfer model, oral administration: antigen-specific T cell proliferation and CD69; format: in vivo, mouse; conditions: mice
Method: • Single cell suspension of splenocytes was prepared from the spleen by rinsing cells through a sterile 70 μm filter with PBS • Cells were collected by centrifugation in an 15 ml tube, the cell pellet was resuspended in 1 ml of Erylyse buffer and incubated at room temperature for 5 minutes, tubes were filled up with PBS and cells were washed twice • Cells were counted and resuspended in the desired buffer volume for MACS-enrichment or flow cytometric analysis Isolation of CD4 T Cells from OT-II Transgenic Mice • Splenocytes were resuspended in MACS buffer ([…] MACS-buffer/10^7 cells) • CD4 T cells were isolated using the CD4 T cell isolation kit (Miltenyi) with LS-columns following manufacturer's recommendations CFSE-Labeling of T Cells • Cells were resuspended in PBS with 0.1% BSA at 1×10^7 cells/ml and CFSE-solution was added to final concentration of 2.5 μM CFSE • Incubated for 10 min at 37° C., swung each 2 min • Same volume of FCS added and incubated for 5 min at room temperature • Cells were washed twice with RMPI-10% FCS medium • Cells were counted and resuspended in PBS or medium at desired concentration OT-II Transfer • Day 0: OT-II cells were transferred in PBS (3*10^6. Cells in 100 μl PBS) by retro-orbital injection • Day 1: WT mice got OVA vaccinated (subcut. flank, 10 μg LPS, 2 μg OVA per animal) • 2 & 4 h later compounds were administrated; for oral dosing compound was used as suspension (0.5% methylcellulose in water), for i.v. dosing compound was solubilized in DMSO and diluted with PBS • Day 2: compounds were administrated twice in the morning (with 2 h time interval) • Day 3: Mice were sacrificed & splenocytes were isolated • T cell proliferation & phenotype was determined by flow cytometry • Flow cytometry-Staining (all Abs purchased from eBioscience and used as recommended by the manufacturer): B220-eF450, CD4-PE, CD25PerCPCy5.5, CD69-PC7, TCRVa2-APC, CD8-AF700, CD3-eF780; CFSE; 7-AAD • Acquisition on Beckman-Coulter Gallios, Analysis using Kaluza Software OT-I Transfer to Mice with B16-F10-OVA Tumors • Day 0: 100000 B16-F10-OVA tumor cells were inoculated subcutaneously at the flank of WT-mice • Day 7: OT-I cells were transferred in PBS (3*10^6. […]

CD4 T cells = assay: CD69 expression on aCD3/aCD28 stimulated isolated human CD4 T cells (flow cytometry); format: cell-based; conditions: 24 h after TCR stimulation, read-out: Activity Class CD69 (CD4)
Method in brief: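 Isolated CD4 and CD8 T cells plated at 80000 cells per well in Xvivo medium and stimulated with anti-CD3/28 mAbs in presence of compound. CD69 expression measured by flow cytometry 24 h after TCR stimulation.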

Work on `CC(C)NC(=O)c1cc2c(cc1F)S(=O)(=O)C[C@H](N)C(=O)N2Cc1ccc(Cl)cc1.Cl` [Example 77, (3R)-3-amino-5-[(4-chlorophenyl)methyl]-8-fluoro-1,1,4-trioxo-N-(propan-2-yl)-2,3,4,5-tetrahydro-1λ^6,5-benzothiazepine-7-carboxamide hydrochloride] yielded an IL-1 (Monocytes; FcR stimulated, 0.01 μM) of 1.14 ng/mL, an IL-6 (Monocytes; FcR stimulated, 0.01 μM) of 1.61 ng/mL and a TNF-alpha (Monocytes; FcR stimulated, 0.01 μM) of 1.62 ng/mL. The IL-1 (Monocytes; FcR stimulated, 0.03 μM) was 1.52 ng/mL, the IL-6 (Monocytes; FcR stimulated, 0.03 μM) was 2.33 ng/mL and the TNF-alpha (Monocytes; FcR stimulated, 0.03 μM) was 2.49 ng/mL. It also gave an IL-1 (Monocytes; FcR stimulated, 0.1 μM) of 1.09 ng/mL, an IL-6 (Monocytes; FcR stimulated, 0.1 μM) of 2.10 ng/mL and a TNF-alpha (Monocytes; FcR stimulated, 0.1 μM) of 2.57 ng/mL. The IL-1 (Monocytes; FcR stimulated, 0.3 μM) was 4.16 ng/mL, the IL-6 (Monocytes; FcR stimulated, 0.3 μM) was 5.65 ng/mL and the TNF-alpha (Monocytes; FcR stimulated, 0.3 μM) was 6.57 ng/mL. The IL-1 (Monocytes; FcR stimulated, 1 μM) was 5.88 ng/mL, the IL-6 (Monocytes; FcR stimulated, 1 μM) was 7.46 ng/mL and the TNF-alpha (Monocytes; FcR stimulated, 1 μM) was 11.02 ng/mL. The IL-1 (Monocytes; FcR stimulated, 3 μM) was 5.50 ng/mL, the IL-6 (Monocytes; FcR stimulated, 3 μM) was 5.93 ng/mL and the TNF-alpha (Monocytes; FcR stimulated, 3 μM) was 14.11 ng/mL. It also gave an IL-1 (Monocytes; FcR stimulated, 10 μM) of 7.44 ng/mL, an IL-6 (Monocytes; FcR stimulated, 10 μM) of 5.86 ng/mL and a TNF-alpha (Monocytes; FcR stimulated, 10 μM) of 16.44 ng/mL. For the same compound, the IL-1 (Monocytes; FcR stimulated, 30 μM) was 7.77 ng/mL, the IL-6 (Monocytes; FcR stimulated, 30 μM) was 6.20 ng/mL and the TNF-alpha (Monocytes; FcR stimulated, 30 μM) was 14.85 ng/mL. For the same compound, the “activation of myeloid cells by FcR stimulation (TNF-alpha, IL-1, IL-6 secretion)” value (Monocytes; monocytes, plate-coated anti-GD2 antibodies) was “directly enhanced the activation of myeloid cells by FcR stimulation, which resulted in increased secretion of TNF-alpha, IL-1 and IL-6”, the IL-6 (Monocytes; unstimulated, 0.1 μM) was 0.14 ng/mL and the IL-6 (Monocytes; unstimulated, 0.3 μM) was 0.13 ng/mL. It also gave an IL-6 (Monocytes; unstimulated, 1 μM) of 0.14 ng/mL, an IL-6 (Monocytes; unstimulated, 3 μM) of 0.13 ng/mL and an IL-6 (Monocytes; unstimulated, 10 μM) of 0.13 ng/mL. The IL-6 (Monocytes; unstimulated, 30 μM) was 0.13 ng/mL and the TNF-alpha (Monocytes; unstimulated, 30 μM) was 0.02 ng/mL.

For `N[C@H]1CS(=O)(=O)c2cc(F)c(C(=O)NC3CC3(F)F)cc2N(Cc2ccc(Cl)cc2)C1=O` (stereo partly drawn) [Example 1, (3R)-3-amino-5-[(4-chlorophenyl)methyl]-N-(2,2-difluorocyclopropyl)-8-fluoro-1,1,4-trioxo-2,3,4,5-tetrahydro-1λ^6,5-benzothiazepine-7-carboxamide hydrochloride], the “Proliferated OT-II cells [% gated] average” value (OT-II cells; LPS & OVA vaccination, 10 mg/kg dosed orally, splenocytes day 3) was 29.03 % gated, the “CD69 on transferred OT-II cells” value (OT-II cells; LPS & OVA, 10 mg/kg orally) was “CD69 was not further upregulated” and the “Proliferation of OT-II cells” value (OT-II cells; LPS & OVA, 10 mg/kg orally, versus no compound) was “highly significantly (p<0.00001) enhanced”.

For `Cl.N[C@H]1CS(=O)(=O)c2cc(F)c(C(=O)NCCCC(F)(F)F)cc2N(Cc2ccc(Cl)cc2)C1=O` [Example 70, (3R)-3-amino-5-[(4-chlorophenyl)methyl]-8-fluoro-1,1,4-trioxo-N-(4,4,4-trifluoro-butyl)-2,3,4,5-tetrahydro-1λ^6,5-benzothiazepine-7-carboxamide hydrochloride], the EC50 (CD4 T cells) was under 1580 nM.
